Source: the NIST ThermoML archive (doi:10.1021/je201014c)
± gives the expanded uncertainty stated by the source.

Settings: 101.33 kPa, Liquid; for viscosity: Capillary tube (Ostwald / Ubbelohde) method; for mass density: Vibrating tube method

CN(C)C=O [dimethylformamide]
Settings	mass density [kg/m3]	viscosity [mPa·s]
283.15 K	958.096 ± 0.4	1.016 ± 0.0065
288.15 K	953.346 ± 0.4	0.9545 ± 0.0063
293.15 K	948.584 ± 0.4	0.8985 ± 0.006
298.15 K	943.817 ± 0.4	0.8455 ± 0.0058
303.15 K	939.042 ± 0.4	0.799 ± 0.0056
308.15 K	934.255 ± 0.41	0.7553 ± 0.0054
313.15 K	929.458 ± 0.41	0.7172 ± 0.0052
318.15 K	924.65 ± 0.41	0.6826 ± 0.0051
